Laboratory results from US8536202B2, “Triazole-substituted anthranilamides as pesticides” (Bayer Cropscience AG, priority 2010, dated 2013).
Like-named read-outs stand apart in the source and are kept apart here.

Columns and labels:
[1] = test system: caterpillars of the armyworm (Spodoptera frugiperda); assay: Spodoptera frugiperda test (SPODFR spray treatment); assay type: in vivo; details: 168 h; for pest or weed control at 100 g/ha: read-out: activity in %
In short: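 Percent caterpillar mortality read 7 days after infestation (0% none killed, 100% all killed). Treatment was a spray of the acetone/DMF/emulsifier formulation, water-diluted to test concentration, onto Zea mays leaf discs, allowed to dry before larvae were added.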

[2] = test system: green peach aphid (Myzus persicae); assay: Myzus test (MYZUPE spray treatment), Use Example 4; assay type: in vivo; details: 144 h; for pest or weed control at 100 g/ha: read-out: activity in %
Procedure: Solvents: 78 parts by weight of acetone • • 1.5 parts by weight of dimethylformamide
Emulsifier: 0.5 part by weight of alkylaryl polyglycol ether
An appropriate preparation of active compound is prepared by mixing 1 part by weight of active compound with the stated amounts of solvents and emulsifier and diluting the concentrate with emulsifier-containing water to the desired concentration.
Leaf discs of Chinese cabbage (Brassica pekinensis) infested by all stages of the green peach aphid (Myzus persicae) are sprayed with a preparation of active compound at the desired concentration.
After 6 days, the activity in % is ascertained. Here, 100% means that all of the aphids have been killed; 0% means that no aphids have been killed.

[3] = log P determination by HPLC on reversed-phase columns (EEC Directive 79/831 Annex V.A8); assay type: physicochemical; details: pH 2.7
In short: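 Calibration used unbranched alkan-2-ones of 3 to 16 carbons with known log P, values interpolated linearly from retention times between neighbouring standards. Acidic-range LC-MS run at pH 2.7, eluents aqueous and acetonitrile formic acid 0.1%, linear gradient 10% to 95% acetonitrile.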

[4] = test system: larvae of the mustard beetle (Phaedon cochleariae); assay: Phaedon test (PHAECO spray treatment); assay type: in vivo; details: 168 h; for pest or weed control at 100 g/ha: read-out: activity in %
In short: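 Mortality of mustard beetle larvae, expressed as percent killed (100% all, 0% none), assessed 7 days after spraying. Spray liquor made from compound in acetone plus dimethylformamide with alkylaryl polyglycol ether, diluted in emulsifier-containing water to the desired concentration.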

[5] = HPLC on reversed-phase columns (C 18), EEC Directive 79/831 Annex V.A8, read-out: logP
[6] = reversed-phase C18 HPLC column, HPLC on reversed-phase columns (C 18), EEC Directive 79/831 Annex V.A8, read-out: logP

Structure (SMILES)	pest or weed control at 100 g/ha ([1]; 100 g/ha, after 7 days) [%]	pest or weed control at 100 g/ha ([2]; 100 g/ha, after 6 days) [%]	chromatographic logP [3]	pest or weed control at 100 g/ha ([4]; 100 g/ha, after 7 days) [%]	also measured
Cc1cc(C#N)cc(C(=O)NC2CC2)c1NC(=O)c1cc(Cn2ncc(C(F)(F)C(F)(F)F)n2)nn1-c1ncccc1Cl [Example 353]	100	100	3.25	100	–
Cc1cc(I)cc(C(N)=O)c1NC(=O)c1cc(Cn2cc(C(F)(F)F)nn2)nn1-c1ncccc1Cl [Example 213]	100	100	2.64	100	–
Cc1cc(Cl)cc(C(=O)NC(C)C)c1NC(=O)c1cc(Cn2cc(C(F)(F)C(F)(F)C(F)(F)F)nn2)nn1-c1ncccc1Cl [Example 340]	–	–	–	–	pest or weed control at 100 g/ha [1]: 100%; pest or weed control at 100 g/ha [2]: 100%; chromatographic logP [3, 5]: 3.8; pest or weed control at 100 g/ha [4]: 100%
Cc1cc(C#N)cc(C(N)=O)c1NC(=O)c1cc(Cn2nc(C(F)(F)F)c(C(F)(F)F)n2)nn1-c1ncccc1Cl [Example 396]	100	90	3.21	100	–
Cc1cc(I)cc(C(N)=O)c1NC(=O)c1cc(Cn2ncc(C(F)(F)C(F)(F)C(F)(F)F)n2)nn1-c1ncccc1Cl [Example 381]	–	–	–	–	pest or weed control at 100 g/ha [1]: 100%; pest or weed control at 100 g/ha [2]: 100%; chromatographic logP [3, 5]: 3.7; pest or weed control at 100 g/ha [4]: 100%
Cc1cc(I)cc(C(=O)NCC2CC2)c1NC(=O)c1cc(Cn2cc(C(F)(F)C(F)(F)F)nn2)nn1-c1ncccc1Cl [Example 314]	100	80	3.8	100	–
Cc1cc(Cl)cc(C(N)=O)c1NC(=O)c1cc(Cn2cc(C(F)(F)C(F)(F)C(F)(F)F)nn2)nn1-c1ncccc1Cl [Example 338]	–	–	–	–	pest or weed control at 100 g/ha [1]: 100%; pest or weed control at 100 g/ha [2]: 100%; chromatographic logP [3, 5]: 3.13; pest or weed control at 100 g/ha [4]: 100%
CNC(=O)c1cc(I)cc(C)c1NC(=O)c1cc(Cn2cc(C(F)(F)C(F)(F)C(F)(F)F)nn2)nn1-c1ncccc1Cl [Example 337]	–	–	–	–	pest or weed control at 100 g/ha [1]: 100%; pest or weed control at 100 g/ha [2]: 100%; chromatographic logP [3, 5]: 3.59; pest or weed control at 100 g/ha [4]: 100%
CSC[C@H](C)NC(=O)c1cc(Cl)cc(C)c1NC(=O)c1cc(Cn2ncc(C(F)(F)C(F)(F)F)n2)nn1-c1ncccc1Cl [Example 348]	100	80	4.1	100	–
CCNC(=O)c1cc(C#N)cc(C)c1NC(=O)c1cc(Cn2cc(C(F)(F)F)nn2)nn1-c1ncccc1Cl [Example 180]	100	–	2.49	–	pest or weed control at 20 g/ha ([2]; 20 g/ha, after 6 days): 100%; pest or weed control at 500 g/ha ([4]; 500 g/ha, after 7 days): 100%
CNC(=O)c1cc(C#N)cc(C)c1NC(=O)c1cc(Cn2cc(C(F)(F)F)nn2)nn1-c1ncccc1Cl [Example 177]	100	100	2.28	100	–
CNC(=O)c1cc(Cl)cc(C)c1NC(=O)c1cc(Cn2cc(C(F)(C(F)(F)F)C(F)(F)F)nn2)nn1-c1ncccc1Cl [Example 225]	–	100	3.36	100	pest or weed control at 20 g/ha ([1]; 20 g/ha, after 7 days): 100%
CNC(=O)c1cc(C#N)cc(C)c1NC(=O)c1cc(Cn2ncc(C(F)(F)F)n2)nn1-c1ccccc1Cl [Example 284]	100	80	–	100	chromatographic logP [3, 6]: 3.1
CCNC(=O)c1cc(C#N)cc(C)c1NC(=O)c1cc(Cn2ncc(C(F)(F)C(F)(F)F)n2)nn1-c1ncccc1Cl [Example 363]	100	100	3.26	100	–
Cc1cc(Cl)cc(C(N)=O)c1NC(=O)c1cc(Cn2ncc(C(F)(F)C(F)(F)C(F)(F)F)n2)nn1-c1ncccc1Cl [Example 384]	–	–	–	–	pest or weed control at 100 g/ha [1]: 100%; pest or weed control at 100 g/ha [2]: 100%; chromatographic logP [3, 5]: 3.5; pest or weed control at 100 g/ha [4]: 100%
CCNC(=O)c1cc(C#N)cc(C)c1NC(=O)c1cc(Cn2cc(C(F)(F)F)nn2)nn1-c1ncccc1Br [Example 8]	100	80	–	100	chromatographic logP [3, 6]: 2.88
CSC[C@H](C)NC(=O)c1cc(C#N)cc(C)c1NC(=O)c1cc(Cn2ncc(C(F)(C(F)(F)F)C(F)(F)F)n2)nn1-c1ncccc1Cl [Example 254]	100	80	–	100	chromatographic logP [3, 6]: 4.06
Cc1cc(C#N)cc(C(=O)NCC2CC2)c1NC(=O)c1cc(Cn2cc(C(F)(F)F)nn2)nn1-c1ncccc1Cl [Example 185]	100	90	2.81	100	–
Cc1cc(C#N)cc(C(=O)NC2CC2)c1NC(=O)c1cc(Cn2cc(C(F)(F)C(F)(F)F)nn2)nn1-c1ncccc1Cl [Example 318]	100	100	2.89	100	–
Cc1cc(C#N)cc(C(=O)NC(C)C)c1NC(=O)c1cc(Cn2ncc(C(F)(F)F)n2)nn1-c1ccccc1Cl [Example 286]	100	80	–	100	chromatographic logP [3, 6]: 3.59
CNC(=O)c1cc(Cl)cc(C)c1NC(=O)c1cc(Cn2cc(C(F)(F)F)nn2)nn1-c1ccccc1Cl [Example 291]	100	80	–	100	chromatographic logP [3, 6]: 3.08
Cc1cc(C#N)cc(C(=O)NC(C)(C)C)c1NC(=O)c1cc(Cn2nc(C(F)(F)F)c(C(F)(F)F)n2)nn1-c1ncccc1Cl [Example 412]	100	80	4.16	100	–
CSC[C@H](C)NC(=O)c1cc(Cl)cc(C)c1NC(=O)c1cc(Cn2nc(C(F)(F)F)c(C(F)(F)F)n2)nn1-c1ncccc1Cl [Example 408]	100	90	4.4	100	–
CNC(=O)c1cc(C#N)cc(C)c1NC(=O)c1cc(Cn2cc(C(F)(C(F)(F)F)C(F)(F)F)nn2)nn1-c1ncccc1Cl [Example 217]	100	100	3.03	100	–
Cc1cc(C#N)cc(C(=O)NC(C)C2CC2)c1NC(=O)c1cc(Cn2ncc(C(F)(F)F)n2)nn1-c1ncccc1Cl (centres unmarked) [Example 125]	100	100	3.39	100	–
Cc1cc(C#N)cc(C(=O)NC(C)(C)C)c1NC(=O)c1cc(Cn2nnc3c(Cl)cc(C(F)(F)F)cc32)nn1-c1ncccc1Cl [Example 110]	100	90	–	100	chromatographic logP [3, 6]: 3.96
